Measurements from PubChem BioAssay AID720600 (Broad Institute, 2013).
Records with an inconclusive call do not appear.

Tested on: SNB-19 viability, Alamar Blue fluorescence, 8-48 h
Experiment: cytotoxicity in SNB-19 CNS tumor cells – cell-based, Alamar Blue fluorescence, 8/24/48 h, dry powder, HRAS target identification, dose response (AID 720600)

Structure (SMILES)	AC50 (measured here: 24 h treatment) [µM]	AC50 (measured here: 48 h treatment) [µM]	AC50 (measured here: 8 h treatment) [µM]
C#CCCCC(=O)NCCOCCOCCOc1ccc(N(C(=O)CCl)C(C(=O)NCCc2ccccc2)c2cccs2)cc1Cl (configuration not stated)	0.946	2.78	
COc1ccc(N(C(=O)CCl)C(C(=O)NCCc2ccccc2)c2cccs2)cc1Cl (configuration not stated)	0.112	0.149	0.0771
CC(C)(C)OC(=O)NCCOCCOCCOc1ccc(N(C(=O)CCl)C(C(=O)NCCc2ccccc2)c2cccs2)cc1Cl (configuration not stated)	0.296	0.353	
